The values below come from patent publication US4363805A, “Aminodesoxy-1.4;3.6-dianhydrohexitol nitrates and pharmaceutical composition” (Firma Willmar Schwabe, priority 1980, dated 1982).

For orientation: LD50 means the dose expected to kill half of the subjects tested.

Series [1] relates to mongrel cats. The series can be described thus: Inotropic and heart-circulatory effectiveness on narcotised cats, intravenous. Format: in vivo, cat. Conditions: 6 animals.
Series [2] is described as follows: Acute toxicity, intravenous, mice. Format: in vivo. To be noted: mouse, in vivo; intravenous, within 24 hours; read-out: Evaluated LD50-range.
Series [3] deals with female NMRI-albino mice. The series can be described thus: Acute toxicity, intravenous, mice. Conditions: within 24 hours. Format: in vivo.
[4] abbreviates: 0.25 mg/kg i.v., before administration.

Consider `O=[N+]([O-])O[C@H]1CO[C@H]2[C@@H]1OC[C@@H]2NCCCCc1ccccc1` [Example 29, 5-(4-Phenylbutylamino)-5-desoxy-1.4;3.6-dianhydro-L-iditol 2-nitrate], for which, in series [1] (setting [4]), the blood pressure before is 106.8 mm.Hg, the “dp/dt (inotropism) before” value amounted to 6480 mm.Hg/sec and the heart frequency before was found to be 209.0 min⁻¹. In addition, in series [1] (0.25 mg/kg i.v.), the “blood pressure WD” value was found to be 3.2 min, the blood pressure after amounted to 91.3 mm.Hg, the “blood pressure Δ” value is reported as -15.5 mm.Hg and the “dp/dt (inotropism) after” value was determined as 6000 mm.Hg/sec. Further, in series [1] (0.25 mg/kg i.v.), the “dp/dt (inotropism) Δ” value is reported as -480 mm.Hg/sec, the “dp/dt WD” value is listed as 1.6 min, the heart frequency after is 204.3 min⁻¹ and the “heart frequency Δ” value is -4.7 min⁻¹. Moreover, in series [1] (0.50 mg/kg i.v.), the “blood pressure WD” value is given as 4.1 min, the blood pressure after stood at 91.3 mm.Hg, the “blood pressure Δ” value was -22.0 mm.Hg and the “dp/dt (inotropism) after” value was determined as 6000 mm.Hg/sec. In addition, in series [1] (0.50 mg/kg i.v.), the “dp/dt (inotropism) Δ” value is listed as -1040 mm.Hg/sec, the “dp/dt WD” value turned out to be 8.2 min, the heart frequency after was 204.7 min⁻¹ and the “heart frequency Δ” value was -7.3 min⁻¹. For the same compound, in series [1] (1.00 mg/kg i.v.), the “blood pressure WD” value worked out at 11.2 min, the blood pressure after amounted to 90.7 mm.Hg, the “blood pressure Δ” value was -34.0 mm.Hg and the “dp/dt (inotropism) after” value was found to be 5000 mm.Hg/sec. Besides, in series [1] (1.00 mg/kg i.v.), the “dp/dt (inotropism) Δ” value is listed as -2360 mm.Hg/sec, the “dp/dt WD” value came out at 25.5 min, the heart frequency after turned out to be 197.7 min⁻¹ and the “heart frequency Δ” value was -11.7 min⁻¹. Besides, in series [1] (2.50 mg/kg i.v.), the “blood pressure WD” value is over 10 min, the blood pressure after worked out at 80.8 mm.Hg, the “blood pressure Δ” value is given as -48.7 mm.Hg and the “dp/dt (inotropism) after” value is listed as 3920 mm.Hg/sec. For the same compound, in series [1] (2.50 mg/kg i.v.), the “dp/dt (inotropism) Δ” value was -3580 mm.Hg/sec, the “dp/dt WD” value is on record as over 10 min, the heart frequency after is 182.0 min⁻¹ and the “heart frequency Δ” value is -23.0 min⁻¹. Besides, the LD50 at 24 h in series [2] was under 50 mg/kg. Moreover, in series [3] (50 mg/kg i.v.), the Frequency of death is on record as 5/6. The Frequency of death in series [3] (100 mg/kg i.v.) is listed as 5/6. In series [3] (200 mg/kg i.v.), the Frequency of death was 3/3.

As to `COc1ccc(OCC(O)CN[C@H]2CO[C@H]3[C@@H]2OC[C@@H]3O[N+](=O)[O-])cc1` (stereo partly drawn) [Example 44, 5-[2-Hydroxy-3-(4-methoxyphenoxy)-propylamino]-5-desoxy-1.4;3.6-dianhydro-L-iditol 2-nitrate], the LD50 at 24 h in series [2] lay in the range of 100 to 200 mg/kg. For the same compound, the results for the Frequency of death in series [3] (100 mg/kg i.v.) and in series [3] (200 mg/kg i.v.) were 0/3 and 2/3, respectively.

As for `O=[N+]([O-])O[C@H]1CO[C@H]2[C@@H]1OC[C@@H]2NCCCOc1ccccc1Cl` [Example 69, 5-[3-(2-Chlorophenoxy)-propylamino]-5-desoxy-1.4;3.6-dianhydro-L-iditol 2-nitrate], the 50% lethal dose (LD50) at 24 h in series [2] lay in the range of 50 to 100 mg/kg. In addition, the values for the Frequency of death in series [3] (50 mg/kg i.v.) and in series [3] (100 mg/kg i.v.) were 0/10 and 3/6, respectively.

With `O=[N+]([O-])O[C@H]1CO[C@H]2[C@@H]1OC[C@@H]2NCCCOc1ccc(Cl)cc1Cl` [Example 72, 5-[3-(2,4-Dichlorophenoxy)-propylamino]-5-desoxy-1.4;3.6-dianhydro-L-iditol2-nitrate], the LD50 at 24 h in series [2] was over 100 mg/kg. Besides, in series [3] (100 mg/kg i.v.), the Frequency of death is 0/6.
